# Measured values from patent publication US20260317344A1, “EGFR INHIBITORS FOR TREATING DISEASE” (BLOSSOMHILL THERAPEUTICS, INC., priority 2023, published 2026).
# How the values were obtained:
# EGFR (L858R) = EGFR (L858R) (Homo sapiens, UniProt P00533, L858R); test: HotSpot radiometric kinase assay, inhibition of EGFR L858R mutant; type: biochemical; details: 33P ATP, room temperature, 120 m
# Outline: (§1)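 Kinase/substrate pairs in 20 mM HEPES pH 7.5, 10 mM MgCl2, 1 mM EGTA, 0.02% Brij35, 0.02 mg/ml BSA, 0.1 mM Na3VO4, 2 mM DTT, 1% DMSO were preincubated ~20 min with compound. ATP plus 33P-ATP (10 µM final) was added for 120 min at room temperature, and P81 filter binding gave IC50 values.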
# EGFR (L858R/T790M) = EGFR (L858R/T790M) (Homo sapiens, UniProt P00533, L858R/T790M); test: HotSpot radiometric kinase assay, inhibition of EGFR L858R/T790M mutant; type: biochemical; details: 33P ATP, room temperature, 120 m
# Outline: (§2)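 Radiometric filter-binding format: ATP plus 33P-ATP ([…]) was added about 20 min after compound to kinase and substrate in HEPES pH 7.5 buffer with Mg2+, EGTA, Brij35, BSA, vanadate, DTT and 1% DMSO. After 120 min at room temperature, reactions were spotted on P81 paper and washed in phosphoric acid; IC50 values fitted.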
# EGFR (L858R/T790M/C797S) = EGFR (L858R/T790M/C797S) (Homo sapiens, UniProt P00533, C797S/L858R/T790M); test: HotSpot radiometric kinase assay, inhibition of EGFR L858R/T790M/C797S mutant; type: biochemical; details: 33P ATP, room temperature, 120 m
# Outline: as §2
# EGFR (D746-750) = EGFR (D746-750) (Homo sapiens, UniProt P00533, DEL746-750); test: HotSpot radiometric kinase assay, inhibition of EGFR 746-750 mutant; type: biochemical; details: 33P ATP, room temperature, 120 m
# Outline: as §2
# EGFR (D746-750/C797S) = EGFR (D746-750/C797S) (Homo sapiens, UniProt P00533, C797S/DEL746-750); test: HotSpot radiometric kinase assay, inhibition of EGFR 746-750/C797S mutant; type: biochemical; details: 33P ATP, room temperature, 120 m
# Outline: as §2
# EGFR (D770_N771insNPG) = EGFR (D770_N771insNPG) (Homo sapiens, UniProt P00533, INS770NPG); test: HotSpot radiometric kinase assay, inhibition of EGFR (D770_N771insNPG) mutant; type: biochemical; details: 33P ATP, room temperature, 120 m
# Outline: as §2
# EGFR WT = EGFR WT (Homo sapiens, UniProt P00533); test: HotSpot radiometric kinase assay, inhibition of EGFR WT; type: biochemical; details: 33P ATP, room temperature, 120 m
# Outline: as §1
# [1] = molecular target: T1, pEGFR, PC-9 cells (d746-750 EGFR) (Homo sapiens, UniProt P00533, DEL746-750); test: Cellular EGFR phosphorylation assay (LANCE Ultra TR-FRET) in PC-9 cells; type: cell-based; details: 4 hours at 37° C., read-out: PC-9 pEGFR IC50
# T1 construct: pEGFR (Tyr1068) TR-FRET
# Outline: (§3)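 pEGFR Tyr1068 TR-FRET readout, lysates after 4 h compound exposure (37 °C, 5% CO2); 9-dose 3-fold series. A431 only: EGF 40 ng/mL for last 10 min. IC50 from curve fit.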
# [2] = molecular target: T2, pEGFR, NCI-H1975 cells (L858R/T790M EGFR) (Homo sapiens, UniProt P00533, L858R/T790M); test: Cellular EGFR phosphorylation assay (LANCE Ultra TR-FRET) in NCI-H1975 cells; type: cell-based; details: 4 hours at 37° C., read-out: H1975 pEGFR IC50
# T2 construct: pEGFR (Tyr1068) TR-FRET
# Outline: as §3
# [3] = molecular target: T3, pEGFR, A431 cells (wildtype EGFR) (Homo sapiens, UniProt P00533); test: Cellular EGFR phosphorylation assay (LANCE Ultra TR-FRET) in A431 cells; type: cell-based; details: 4 hours at 37° C., 40 ng/mL EGF for the final 10 minutes, read-out: A431 pEGFR IC50
# T3 construct: pEGFR (Tyr1068) TR-FRET
# Outline: as §3
# PC-9 cells = test: 5-Day CellTiter Glo (CTG) cell proliferation assay, PC-9; type: cell-based; details: Homo sapiens; PC-9 cells (d746-750 EGFR), 5-day CTG proliferation, 120 hours; read-out: PC-9 IC50
# Outline: (§4)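 Proliferation of EGFR-driven NSCLC cells was scored as CellTiter-Glo 2.0 luminescence after a 5-day (120 h) incubation with compounds in 9 doses. IC50 values came from the dose-response curves.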
# NCI-H1975 cells = test: 5-Day CellTiter Glo (CTG) cell proliferation assay, NCI-H1975; type: cell-based; details: Homo sapiens; NCI-H1975 cells (L858R/T790M EGFR), 5-day CTG proliferation, 120 hours; read-out: H1975 IC50
# Outline: as §4
# HCC827 cells = test: 5-Day CellTiter Glo (CTG) cell proliferation assay, HCC827; type: cell-based; details: Homo sapiens; HCC827 cells (d746-750 EGFR), 5-day CTG proliferation, 120 hours; read-out: HCC827 IC50
# Outline: as §4
# [4] = system: BaF3 cells with engineered EGFR L858R/T790M/C797S; test: 3-Day CellTiter Glo (CTG) cell proliferation assay, BaF3 EGFR L858R/T790M/C797S; type: cell-based; details: Mus musculus, 3-day CTG proliferation, 72 hours
# Outline: (§5)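 Growth inhibition in transgene-bearing BaF3 lines was scored after three days of compound treatment by CellTiter-Glo 2.0 ATP luminescence, yielding IC50 values.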
# [5] = system: BaF3 cells with engineered EGFR L858R/C797S; test: 3-Day CellTiter Glo (CTG) cell proliferation assay, BaF3 EGFR L858R/C797S; type: cell-based; details: Mus musculus, 3-day CTG proliferation, 72 hours
# Outline: as §5
# [6] = system: BaF3 cells with engineered EGFR d746-750/T790M; test: 3-Day CellTiter Glo (CTG) cell proliferation assay, BaF3 EGFR d746-750/T790M; type: cell-based; details: Mus musculus; BaF3 EGFR d746-750/T790M cells, 3-day CTG proliferation, 72 hours
# Outline: as §5
# Chain of EGFR (D770_N771insNPG) (P00533 with tags, fused parts or gaps INS770NPG limits assumed): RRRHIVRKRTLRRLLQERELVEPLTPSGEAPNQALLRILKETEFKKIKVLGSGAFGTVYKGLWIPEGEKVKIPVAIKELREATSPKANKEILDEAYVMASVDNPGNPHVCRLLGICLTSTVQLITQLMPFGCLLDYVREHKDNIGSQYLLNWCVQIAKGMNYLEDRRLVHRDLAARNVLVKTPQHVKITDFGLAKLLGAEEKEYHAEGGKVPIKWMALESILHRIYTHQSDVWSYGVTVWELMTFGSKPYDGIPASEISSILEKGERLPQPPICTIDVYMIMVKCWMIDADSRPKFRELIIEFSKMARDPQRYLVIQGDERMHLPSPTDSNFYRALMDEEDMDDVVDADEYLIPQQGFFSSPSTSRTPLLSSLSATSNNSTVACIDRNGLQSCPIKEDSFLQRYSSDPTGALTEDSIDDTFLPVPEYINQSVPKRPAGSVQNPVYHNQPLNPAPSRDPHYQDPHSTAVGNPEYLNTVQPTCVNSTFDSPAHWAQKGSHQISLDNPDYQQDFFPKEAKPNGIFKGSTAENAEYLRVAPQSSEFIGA
# T3 sequence (P00533 25-1210): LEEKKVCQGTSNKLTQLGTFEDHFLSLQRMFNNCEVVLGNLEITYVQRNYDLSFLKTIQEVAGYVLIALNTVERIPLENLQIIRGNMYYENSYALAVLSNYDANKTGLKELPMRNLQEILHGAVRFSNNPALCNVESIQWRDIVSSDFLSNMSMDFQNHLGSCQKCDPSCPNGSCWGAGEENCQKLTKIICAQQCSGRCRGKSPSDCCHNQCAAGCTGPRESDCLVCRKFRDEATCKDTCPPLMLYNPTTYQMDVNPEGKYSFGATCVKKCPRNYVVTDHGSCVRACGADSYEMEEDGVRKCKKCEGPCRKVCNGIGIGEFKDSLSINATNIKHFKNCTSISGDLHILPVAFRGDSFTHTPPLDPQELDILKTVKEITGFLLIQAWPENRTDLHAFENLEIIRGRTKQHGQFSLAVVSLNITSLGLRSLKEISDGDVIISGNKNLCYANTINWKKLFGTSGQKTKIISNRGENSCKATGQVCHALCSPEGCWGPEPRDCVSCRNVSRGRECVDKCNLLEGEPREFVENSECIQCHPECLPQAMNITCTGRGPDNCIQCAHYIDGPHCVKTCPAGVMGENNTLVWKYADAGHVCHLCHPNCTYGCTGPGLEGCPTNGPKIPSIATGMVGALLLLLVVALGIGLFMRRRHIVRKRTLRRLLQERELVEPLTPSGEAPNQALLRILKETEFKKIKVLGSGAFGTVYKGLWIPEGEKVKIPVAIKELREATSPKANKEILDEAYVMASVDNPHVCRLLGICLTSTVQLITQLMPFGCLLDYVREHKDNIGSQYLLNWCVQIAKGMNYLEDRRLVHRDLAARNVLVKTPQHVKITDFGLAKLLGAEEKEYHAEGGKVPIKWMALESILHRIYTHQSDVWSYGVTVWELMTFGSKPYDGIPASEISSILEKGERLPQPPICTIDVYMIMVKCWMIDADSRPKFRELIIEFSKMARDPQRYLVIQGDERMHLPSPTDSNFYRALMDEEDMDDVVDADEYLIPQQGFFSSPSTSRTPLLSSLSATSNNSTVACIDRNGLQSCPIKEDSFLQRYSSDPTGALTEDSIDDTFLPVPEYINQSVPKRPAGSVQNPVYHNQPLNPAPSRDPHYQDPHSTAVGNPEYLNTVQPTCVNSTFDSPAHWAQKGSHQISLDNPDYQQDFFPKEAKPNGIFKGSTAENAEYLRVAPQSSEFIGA
# Chain of EGFR WT (P00533 25-1210): as above
# Chain of EGFR (L858R/T790M) (P00533 25-1210 T790M/L858R): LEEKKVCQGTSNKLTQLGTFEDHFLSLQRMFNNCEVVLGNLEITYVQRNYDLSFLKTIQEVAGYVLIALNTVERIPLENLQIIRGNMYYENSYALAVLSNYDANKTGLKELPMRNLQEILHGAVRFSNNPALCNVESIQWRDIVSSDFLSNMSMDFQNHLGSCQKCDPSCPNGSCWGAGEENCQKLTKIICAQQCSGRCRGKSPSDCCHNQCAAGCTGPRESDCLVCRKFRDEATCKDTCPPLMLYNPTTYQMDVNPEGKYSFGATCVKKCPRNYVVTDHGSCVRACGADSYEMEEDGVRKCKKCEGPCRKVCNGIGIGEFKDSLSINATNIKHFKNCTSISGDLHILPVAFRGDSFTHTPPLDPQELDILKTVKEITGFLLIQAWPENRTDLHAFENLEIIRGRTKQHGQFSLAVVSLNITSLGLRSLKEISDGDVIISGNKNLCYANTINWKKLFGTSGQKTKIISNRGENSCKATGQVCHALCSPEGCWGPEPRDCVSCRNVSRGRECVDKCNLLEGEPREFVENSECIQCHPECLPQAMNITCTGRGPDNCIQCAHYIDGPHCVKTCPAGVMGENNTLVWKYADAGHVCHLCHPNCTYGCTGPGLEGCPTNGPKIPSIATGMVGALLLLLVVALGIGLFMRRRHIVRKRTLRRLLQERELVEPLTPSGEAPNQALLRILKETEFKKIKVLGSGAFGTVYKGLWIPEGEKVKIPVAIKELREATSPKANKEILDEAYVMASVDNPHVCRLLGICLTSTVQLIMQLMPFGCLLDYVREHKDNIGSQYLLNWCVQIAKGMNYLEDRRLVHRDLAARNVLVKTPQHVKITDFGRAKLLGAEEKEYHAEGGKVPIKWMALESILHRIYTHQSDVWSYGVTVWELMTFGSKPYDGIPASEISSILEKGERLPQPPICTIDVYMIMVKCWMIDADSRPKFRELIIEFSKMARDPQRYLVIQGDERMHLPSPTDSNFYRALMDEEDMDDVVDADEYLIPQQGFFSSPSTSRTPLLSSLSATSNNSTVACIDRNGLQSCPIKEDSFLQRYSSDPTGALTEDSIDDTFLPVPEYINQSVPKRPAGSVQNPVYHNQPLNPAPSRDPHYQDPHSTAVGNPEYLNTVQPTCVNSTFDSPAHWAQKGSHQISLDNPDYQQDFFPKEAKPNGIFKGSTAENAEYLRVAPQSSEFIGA
Structure (SMILES),IC50 (EGFR (L858R)),IC50 (EGFR (L858R/T790M)),IC50 (EGFR (L858R/T790M/C797S)),IC50 (EGFR (D746-750)),IC50 (EGFR (D746-750/C797S)),IC50 (EGFR (D770_N771insNPG)),IC50 (EGFR WT),IC50 [1],IC50 [2],IC50 [3],IC50 (PC-9 cells),IC50 (NCI-H1975 cells),IC50 (HCC827 cells),IC50 [4],IC50 [5],IC50 [6]
"CCOc1nn(CCO)c2c1/C=C/c1n[nH]c3c(C)nc(cc13)-c1c(C)nn(C)c1O[C@@H](C)CN(C)C2 [Ex. 47, 2-[(10S,17E)-16-ethoxy-6,8,10,12,20-pentamethyl-2,8,10,11,12,13-hexahydro-14H-5,3-(azenometheno)tripyrazolo[3,4-f:3′,4′-j:4″,3″-n][1,4]oxazacyclopentadecin-14-yl]ethan-1-ol]",0.2 nM,0.32 nM,0.28 nM,0.43 nM,0.27 nM,0.2 nM,0.18 nM,1.13 nM,1.06 nM,15.2 nM,1.8 nM,1.77 nM,0.57 nM,0.62 nM,0.07 nM,1.5 nM
"CCOc1nn([C@@H](C)CO)c2c1/C=C/c1n[nH]c3cnc(cc13)-c1c(C)nn(C)c1O[C@@H](C)CN(C1CC1)C2 [Ex. 110, (2S)-2-[(10S,17E)-12-cyclopropyl-16-ethoxy-6,8,10-trimethyl-2,8,10,11,12,13-hexahydro-14H-5,3-(azenometheno)tripyrazolo[3,4-f:3′,4′-j:4″,3″-n][1,4]oxazacyclopentadecin-14-yl]propan-1-ol]",0.36 nM,0.5 nM,0.25 nM,0.46 nM,0.56 nM,0.18 nM,0.09 nM,1.12 nM,1.76 nM,1.42 nM,0.47 nM,1.07 nM,0.31 nM,0.71 nM,0.07 nM,0.61 nM
"CCOc1nn(CCO)c2c1/C=C/c1n[nH]c3c(C)nc(cc13)-c1cnn(C)c1O[C@@H](C)CN(CC)C2 [Ex. 28, 2-[(10S,17E)-16-ethoxy-12-ethyl-8,10,20-trimethyl-2,8,10,11,12,13-hexahydro-14H-5,3-(azenometheno)tripyrazolo[3,4-f:3′,4′-j:4″,3″-n][1,4]oxazacyclopentadecin-14-yl]ethan-1-ol]",1.99 nM,0.46 nM,0.41 nM,0.37 nM,0.85 nM,1.23 nM,1.03 nM,14.4 nM,3 nM,52.8 nM,16.8 nM,33 nM,2.33 nM,1.71 nM,2.47 nM,1.16 nM
"CCOc1nn(CCO)c2c1/C=C/c1n[nH]c3cnc(cc13)-c1c(C)nn(C)c1OC[C@H](C)N(CC)C2 [Ex. 16, 2-[(11S,17E)-16-ethoxy-12-ethyl-6,8,11-trimethyl-2,8,10,11,12,13-hexahydro-14H-5,3-(azenometheno)tripyrazolo[3,4-f:3′,4′-j:4″,3″-n][1,4]oxazacyclopentadecin-14-yl]ethan-1-ol]",0.62 nM,1.38 nM,4.57 nM,0.66 nM,1.43 nM,0.68 nM,0.45 nM,4.37 nM,5.22 nM,19.8 nM,5.56 nM,27.1 nM,0.88 nM,1.93 nM,0.34 nM,0.66 nM
"Cc1nn(C)c2c1-c1cc3c(n[nH]c3cn1)/C=C/c1c(OCC#N)nn(CCO)c1CN(C)C[C@H](C)O2 [Ex. 22, {[(10S,17E)-14-(2-hydroxyethyl)-6,8,10,12-tetramethyl-2,10,11,12,13,14-hexahydro-8H-5,3-(azenometheno)tripyrazolo[3,4-f:3′,4′-j:4″,3″-n][1,4]oxazacyclopentadecin-16-yl]oxy}acetonitrile]",1.45 nM,0.73 nM,0.52 nM,0.3 nM,1.27 nM,0.28 nM,0.41 nM,5.67 nM,6.81 nM,67.5 nM,7.12 nM,19.8 nM,0.87 nM,4.39 nM,0.56 nM,5.77 nM
"CCOc1nn([C@@H](C)CO)c2c1/C=C/c1n[nH]c3c(C)nc(cc13)-c1c(C)nn(C)c1O[C@@H](C)CN(C)C2 [Ex. 54, (2S)-2-[(10S,17E)-16-ethoxy-6,8,10,12,20-pentamethyl-2,8,10,11,12,13-hexahydro-14H-5,3-(azenometheno)tripyrazolo[3,4-f:3′,4′-j:4″,3″-n][1,4]oxazacyclopentadecin-14-yl]propan-1-ol]",0.32 nM,1.04 nM,0.65 nM,0.67 nM,0.48 nM,0.55 nM,0.38 nM,0.67 nM,0.94 nM,10.7 nM,0.78 nM,0.99 nM,0.41 nM,0.55 nM,0.06 nM,0.55 nM
"CCOc1nn([C@@H](C)CO)c2c1/C=C/c1n[nH]c3c(C)nc(cc13)-c1c(C)nn(C)c1O[C@H](C)[C@H]1CCCN1C2 [Ex. 180, (2S)-2-[(8aR,9R,19E)-1-ethoxy-9,11,13,21-tetramethyl-7,8,8a,9,11,17-hexahydro-6H-14,16-(azenometheno)tripyrazolo[3,4-f:3′,4′-j:4″,3″-n]pyrrolo[2,1-c][1,4]oxazacyclopentadecin-3(4H)-yl]propan-1-ol]",0.15 nM,0.16 nM,0.13 nM,0.21 nM,0.21 nM,0.1 nM,0.05 nM,0.64 nM,1.54 nM,6.08 nM,0.7 nM,0.95 nM,0.34 nM,0.69 nM,0.06 nM,0.57 nM
"CCN1Cc2c(c(OCC#N)nn2CCO)/C=C/c2n[nH]c3cnc(cc23)-c2c(C)nn(C)c2O[C@@H](C)C1 [Ex. 23, {[(10S,17E)-12-ethyl-14-(2-hydroxyethyl)-6,8,10-trimethyl-2,10,11,12,13,14-hexahydro-8H-5,3-(azenometheno)tripyrazolo[3,4-f:3′,4′-j:4″,3″-n][1,4]oxazacyclopentadecin-16-yl]oxy}acetonitrile]",1.02 nM,0.6 nM,0.47 nM,0.36 nM,1.01 nM,0.29 nM,0.31 nM,3.42 nM,5.84 nM,43.1 nM,2.91 nM,10 nM,0.41 nM,2.69 nM,0.43 nM,3.77 nM
